Reference: BigSolDB 2.1

Which results are given for `COc1cc(-c2cc(=O)c3c(O)cc(O)cc3o2)cc(OC)c1O`?
solubility (mole fraction) (in ethanol, 288.15 K): 5.94e-06; solubility (mole fraction) (in ethanol, 293.16 K): 8.85e-06; solubility (mole fraction) (in ethanol, 298.15 K): 1.26e-05; solubility (mole fraction) (in ethanol, 303.15 K): 1.72e-05; solubility (mole fraction) (in ethanol, 308.16 K): 2.19e-05; solubility (mole fraction) (in ethanol, 313.18 K): 3e-05; solubility (mole fraction) (in ethanol, 318.15 K): 3.83e-05; solubility (mole fraction) (in water, 288.15 K): 5e-10; solubility (mole fraction) (in water, 293.16 K): 1e-09; solubility (mole fraction) (in water, 298.15 K): 1.4e-09; solubility (mole fraction) (in water, 303.15 K): 2.1e-09; solubility (mole fraction) (in water, 308.16 K): 3.5e-09; solubility (mole fraction) (in water, 313.18 K): 5.6e-09; solubility (mole fraction) (in water, 318.15 K): 8.1e-09
